The record followed here is patent publication US7465815B2, “Cannabinoid receptor modulator” (priority 2003, dated 2008).

Where two headings read alike, the source gives them in different places.

A word on the IC50: it is the concentration needed to halve the response being measured.

One assay concerns the target T1, human CB1 receptor (Homo sapiens, UniProt P21554).
T1 construct: expressed in transfected cells; host or cells: CHO cells (membrane fraction)
Briefly: [3H]-CP55,940 binding inhibition assay, CHO cell membrane fraction expressing human CB1 receptor. On the procedure:
(§1) [^3H]-CP55,940 binding assay with a cell membrane fraction expressing human CB1 and CB2 receptor
(§2) [^3H]-CP55940 binding inhibition assay was conducted by incubating a CHO cell membrane fraction expressing human CB1 receptor and the test compound and 500 pM [^3H]-CP55940 in reaction buffer (50 mM Tris-HCl (pH7.4), 5 mM MgCl2, 2.5 mM EDTA and 0.5% BSA (fatty acid free)) at room temperature for 60 minutes. The reaction solution was filtered through GF/C filter, washed with 300 μl of washing buffer (50 mM Tris-HCl (pH7.4), 0.05% BSA (fatty acid free)) four times, and the radioactivity of the filter was measured with a Top Count scintillation counter (Packard). As results, the test compound has inhibited binding of [^3H]-CP55940 to the membrane fraction dose-dependently.
(§3) The inhibitory activity of the test compound to [^3H]-CP55940 binding was calculated by percent on the basis that radioactivity is 100% when only 500 pM [^3H]-CP55940 was added, and 0% when 500 pM [^3H]-CP55940 and 100 nM CP55940 were added at the same time. Further, IC50 value of the test compound was calculated by analyzing concentrations and percents of the test compound with PRISM 3.0 (Graphpad Software, Inc.).

The target of another assay is T2, CB1 receptor (Mus musculus, UniProt P47746).
T2 construct: from tissue; host or cells: whole animal, Jcl: ICR male mice
T2 sequence (P47746 whole entry): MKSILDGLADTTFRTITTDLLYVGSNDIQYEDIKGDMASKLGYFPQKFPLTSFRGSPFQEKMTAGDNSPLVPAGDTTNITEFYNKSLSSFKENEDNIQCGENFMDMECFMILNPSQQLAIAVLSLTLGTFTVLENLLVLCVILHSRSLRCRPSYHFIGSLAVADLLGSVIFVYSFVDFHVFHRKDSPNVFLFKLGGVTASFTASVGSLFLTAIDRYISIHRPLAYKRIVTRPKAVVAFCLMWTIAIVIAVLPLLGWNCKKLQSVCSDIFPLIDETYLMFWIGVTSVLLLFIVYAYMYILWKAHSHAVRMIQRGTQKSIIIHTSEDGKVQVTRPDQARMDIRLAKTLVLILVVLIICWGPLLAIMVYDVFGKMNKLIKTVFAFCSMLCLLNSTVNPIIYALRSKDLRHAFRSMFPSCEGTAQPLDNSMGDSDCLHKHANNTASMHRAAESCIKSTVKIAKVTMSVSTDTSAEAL
Briefly: Body temperature-lowering action on mouse (CB1 receptor agonistic activity in vivo). The conditions noted are these: Jcl: ICR male mice, 1 mg/kg i.p., rectal temperature 30 minutes after administration, compared with control group. On the procedure:
Body temperature-lowering action on mouse
CB1 receptor agonistic activity of the compound of the present invention in vivo was evaluated by investigating the effect on the body temperature of mouse after the drug was administered to the mouse. In this experiment, Jcl: ICR male mice (5 weeks old) were used. After measuring the rectal temperature with a thermometer (Physitemp BAT-12) that was connected to a probe for measuring body temperature, the compound dissolved in 2.2% EtOH and 5% G2-β-cyclodextrin (solvent) was administered intraperitoneally. Solvent only was administered to the control group. 30 minutes after administration, rectal temperature was measured again. The experiment was conducted for 4 subjects per a group.

The target in a further assay is T3, human CB2 receptor (Homo sapiens, UniProt P34972).
T3 construct: expressed in transfected cells; host or cells: CHO cells (membrane fraction)
T3 sequence (P34972 whole entry): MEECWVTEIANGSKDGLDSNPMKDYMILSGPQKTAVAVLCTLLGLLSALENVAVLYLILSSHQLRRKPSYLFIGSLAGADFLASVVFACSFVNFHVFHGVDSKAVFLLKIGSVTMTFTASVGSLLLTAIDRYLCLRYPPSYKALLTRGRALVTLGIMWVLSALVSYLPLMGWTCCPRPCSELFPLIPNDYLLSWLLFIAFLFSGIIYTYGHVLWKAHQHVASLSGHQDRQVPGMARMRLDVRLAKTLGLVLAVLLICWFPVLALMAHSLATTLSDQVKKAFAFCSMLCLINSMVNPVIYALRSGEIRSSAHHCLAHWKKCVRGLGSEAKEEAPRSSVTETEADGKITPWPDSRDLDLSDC
Nature of the assay: [3H]-CP55,940 binding inhibition assay, CHO cell membrane fraction expressing human CB2 receptor. On the procedure:
as §1, §2, §3
The same assay was also conducted for a CHO cell membrane fraction expressing human CB2 receptor, and the inhibitory activity to [^3H]-CP55940 binding was calculated.

T1 sequence (P21554 whole entry): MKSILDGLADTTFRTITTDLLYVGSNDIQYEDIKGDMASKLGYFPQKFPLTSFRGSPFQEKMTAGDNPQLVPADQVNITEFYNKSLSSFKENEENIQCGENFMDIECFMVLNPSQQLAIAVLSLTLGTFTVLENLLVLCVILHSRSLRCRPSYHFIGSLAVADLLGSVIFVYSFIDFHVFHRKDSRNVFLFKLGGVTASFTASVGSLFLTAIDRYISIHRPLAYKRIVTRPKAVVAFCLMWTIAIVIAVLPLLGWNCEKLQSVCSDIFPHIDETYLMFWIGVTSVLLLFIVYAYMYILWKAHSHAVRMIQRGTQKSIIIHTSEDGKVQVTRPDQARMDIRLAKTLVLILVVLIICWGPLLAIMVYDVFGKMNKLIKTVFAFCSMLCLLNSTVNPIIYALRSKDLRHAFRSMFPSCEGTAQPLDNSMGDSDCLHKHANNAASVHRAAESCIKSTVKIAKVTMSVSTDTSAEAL

Take `Cc1c(NC(=O)CC(C)(C)C)c(C)c2c(c1C(C)O)OCC2c1ccc(C(C)C)cc1` (single isomer, unassigned) [Example 28, N-(7-(1-Hydroxyethyl)-3-(4-isopropylphenyl)-4,6-dimethyl-2,3-dihydro-1-benzofuran-5-yl)-3,3-dimethylbutanamide]: the IC50 at human CB1 receptor and on human CB2 receptor was under 10 nM in each case. Moreover, on CB1 receptor, the “Test Results (body temperature-lowering action)” value was “Effective (estimated as effective if the compound of the present invention lowered the body temperature substantially by 1 °C or more when compared with the control group 30 minutes after administration of 1 mg/kg, i.p.)”.
`Cc1c(NC(=O)CC(C)(C)C)c(C)c2c(c1C(C)O)OCC2c1ccc(C(C)C)cc1` (single isomer, unassigned) [Example 29, N-(7-(1-Hydroxyethyl)-3-(4-isopropylphenyl)-4,6-dimethyl-2,3-dihydro-1-benzofuran-5-yl)-3,3-dimethylbutanamide]: the IC50 was under 10 nM at human CB1 receptor (read-out: CB1 IC50 value, 500 pM [3H]-CP55940, CHO cell membrane fraction expressing human CB1 receptor, room temperature, 60 minutes) and under 10 nM on human CB2 receptor (read-out: CB2 IC50 value, 500 pM [3H]-CP55940, CHO cell membrane fraction expressing human CB2 receptor). Further, the “Test Results (body temperature-lowering action)” value at CB1 receptor is “Effective (estimated as effective if the compound of the present invention lowered the body temperature substantially by 1 °C or more when compared with the control group 30 minutes after administration of 1 mg/kg, i.p.)”.
In the case of `CCC(O)c1c(C)c(NC(=O)CC(C)(C)C)c(C)c2c1OCC2c1ccc(C(C)C)cc1` (single isomer, unassigned) [Example 31, N-(7-(1-Hydroxypropyl)-3-(4-isopropylphenyl)-4,6-dimethyl-2,3-dihydro-1-benzofuran-5-yl)-3,3-dimethylbutanamide], the concentration for half-maximal inhibition (IC50) on human CB1 receptor and on human CB2 receptor was under 10 nM in each case. In addition, the “Test Results (body temperature-lowering action)” value on CB1 receptor is “Effective (estimated as effective if the compound of the present invention lowered the body temperature substantially by 1 °C or more when compared with the control group 30 minutes after administration of 1 mg/kg, i.p.)”.
`Cc1c(C)c2c(c(C)c1NC(=O)CC(C)(C)C)C(c1ccc(C(C)C)cc1)CO2` (stereo not drawn) [Example 1, N-(3-(4-Isopropylphenyl)-4,6,7-trimethyl-2,3-dihydro-1-benzofuran-5-yl)-3,3-dimethylbutanamide]: the IC50 on human CB1 receptor is 20 nM; on human CB2 receptor it was under 10 nM. Further, the “Test Results (body temperature-lowering action)” value on CB1 receptor is “Effective (estimated as effective if the compound of the present invention lowered the body temperature substantially by 1 °C or more when compared with the control group 30 minutes after administration of 1 mg/kg, i.p.)”.
As for `Cc1c(C)c2c(c(C)c1NC(=O)CC(C)(C)C)[C@@H](c1ccc(C(C)C)cc1)CO2` [Example 7, (+)-N-((3R)-3-(4-Isopropylphenyl)-4,6,7-trimethyl-2,3-dihydro-1-benzofuran-5-yl)-3,3-dimethylbutanamide], the IC50 at human CB1 receptor and on human CB2 receptor was under 10 nM in each case. In addition, at CB1 receptor, the “Test Results (body temperature-lowering action)” value was “Effective (estimated as effective if the compound of the present invention lowered the body temperature substantially by 1 °C or more when compared with the control group 30 minutes after administration of 1 mg/kg, i.p.)”.
With `CCC(=O)Nc1c(C)c(C)c2c(c1C)C(c1ccc(C(C)C)cc1)CO2` (stereo not drawn) [Example 9, N-(3-(4-Isopropylphenyl)-4,6,7-trimethyl-2,3-dihydro-1-benzofuran-5-yl)propionamide], the IC50 turned out to be 79 nM at human CB1 receptor and 11 nM on human CB2 receptor.
Turning to `Cc1c(C)c2c(c(C)c1NC(=O)NC(C)(C)C)C(c1ccc(C(C)C)cc1)CO2` (stereo not drawn) [Example 14, N-(tert-Butyl)-N′-(3-(4-isopropylphenyl)-4,6,7-trimethyl-2,3-dihydro-1-benzofuran-5-yl)urea], the IC50 at human CB1 receptor was 20 nM; on human CB2 receptor, under 10 nM. Moreover, the “Test Results (body temperature-lowering action)” value on CB1 receptor is “Effective (estimated as effective if the compound of the present invention lowered the body temperature substantially by 1 °C or more when compared with the control group 30 minutes after administration of 1 mg/kg, i.p.)”.
As for `Cc1c(NC(=O)CC(C)(C)C)c(C)c2c(c1C(C)O)OCC2c1ccc(C(C)C)cc1` (stereo not drawn) [Example 22, N-(7-(1-Hydroxyethyl)-3-(4-isopropylphenyl)-4,6-dimethyl-2,3-dihydro-1-benzofuran-5-yl)-3,3-dimethylbutanamide], the IC50 on human CB1 receptor was 11 nM; on human CB2 receptor, under 10 nM. The “Test Results (body temperature-lowering action)” value at CB1 receptor was “Effective (estimated as effective if the compound of the present invention lowered the body temperature substantially by 1 °C or more when compared with the control group 30 minutes after administration of 1 mg/kg, i.p.)”.
For the molecule `CCc1c(C)c(NC(=O)CC(C)(C)C)c(C)c2c1OCC2c1ccc(C(C)C)cc1` (stereo not drawn) [Example 23, N-(7-Ethyl-3-(4-isopropylphenyl)-4,6-dimethyl-2,3-dihydro-1-benzofuran-5-yl)-3,3-dimethylbutanamide], the IC50 at human CB1 receptor and on human CB2 receptor was under 10 nM throughout. Also, the “Test Results (body temperature-lowering action)” value at CB1 receptor is “Effective (estimated as effective if the compound of the present invention lowered the body temperature substantially by 1 °C or more when compared with the control group 30 minutes after administration of 1 mg/kg, i.p.)”.
In the case of `CC(=O)c1c(C)c(NC(=O)CC(C)(C)C)c(C)c2c1OCC2c1ccc(C(C)C)cc1` (stereo not drawn) [Example 32, N-(7-Acetyl-3-(4-isopropylphenyl)-4,6-dimethyl-2,3-dihydro-1-benzofuran-5-yl)-3,3-dimethylbutanamide], the IC50 on human CB1 receptor and on human CB2 receptor was under 10 nM throughout. The “Test Results (body temperature-lowering action)” value at CB1 receptor is “Effective (estimated as effective if the compound of the present invention lowered the body temperature substantially by 1 °C or more when compared with the control group 30 minutes after administration of 1 mg/kg, i.p.)”.
As for `Cc1c(NC(=O)CC(C)(C)C)c(C)c(C(C)(C)O)c2c1C(c1ccc(C(C)C)cc1)CO2` (stereo not drawn) [Example 33, N-(7-(1-Hydroxy-1-methylethyl)-3-(4-isopropylphenyl)-4,6-dimethyl-2,3-dihydro-1-benzofuran-5-yl)-3,3-dimethylbutanamide], the figures for the IC50 on human CB1 receptor and on human CB2 receptor were 14 nM and under 10 nM, respectively. For the same molecule, the “Test Results (body temperature-lowering action)” value on CB1 receptor was “Effective (estimated as effective if the compound of the present invention lowered the body temperature substantially by 1 °C or more when compared with the control group 30 minutes after administration of 1 mg/kg, i.p.)”.
For the molecule `CCOC(=O)C(C)(C)Oc1cc(C)cc(C)c1Cc1ccc(C(C)C)cc1` [Reference Example 153], the half-inhibitory concentration (IC50) on human CB1 receptor (500 pM [3H]-CP55940, CHO cell membrane fraction expressing human CB1 receptor, room temperature, 60 minutes, read-out: CB1 IC50 value) was 110 nM; at human CB2 receptor (500 pM [3H]-CP55940, CHO cell membrane fraction expressing human CB2 receptor, read-out: CB2 IC50 value) it was 560 nM.
For `Cc1cc(C)c2c(c1)SCC2c1ccc(C(C)C)cc1` (stereo not drawn) [Reference Example 212], the 50% inhibitory concentration (IC50) at human CB1 receptor was 69 nM; at human CB2 receptor, under 10 nM.
Regarding `Cc1ccc(C)c2c1OC(=O)C2c1ccc(C(C)C)cc1` (stereo not drawn) [Reference Example 230], the IC50 at human CB1 receptor and at human CB2 receptor was 55 nM in each case.
For the molecule `Cc1ccc(C)c(C(CO)c2ccc(C(C)C)cc2)c1O` (stereo not drawn) [Reference Example 233], the figures for the IC50 at human CB1 receptor and at human CB2 receptor were 38 nM and 47 nM, respectively.
For `Cc1c(C)c(C(CO)c2ccc(C(C)C)cc2)c(O)c(C)c1Br` (stereo not drawn) [Reference Example 234], the IC50 at human CB1 receptor amounted to 40 nM; at human CB2 receptor it was 31 nM.
